Measured values as given in publication PMC12498136, “Synthesis and biological evaluation of novel carnosic acid derivatives with anticancer activity” (RSC Advances, 2025).

What was measured:
Assay type in all cases: cell-based
SW480 cells = test: Cell proliferation assay and cell doubling time; settings: 6.3 μM, ln(2)/cell growth rate
Source text: Cell growth rates represent a characteristic of cell lines, indicating the rate at which the cell population size changes over time.[29] The commonly used metric for assessing the cell growth rate is the cell doubling time, which denotes the time required for a cell population to double in size. Cell doubling time can be estimated using the following formula: ln(2)/cell growth rate.[30] A time-dependent cell growth curve was constructed to elucidate the effect of compound 17 on the growth pattern of SW480 cells (Fig. 4). […] The cell concentration at each time point allowed us to determine the cell growth rate and subsequently calculate the cell doubling time. Compound 17 induced an increase in the doubling time of SW480 cells (69 h) compared to the control group (43 h). In summary, compound 17 affected the growth pattern of SW480 cells by increasing the cell doubling time, consequently decreasing the cell growth rate.
SW480 cells (1.68 × 10^5 cells per well) were seeded in 6-well plates and incubated at 37 °C for 24 h. The cells were then treated with compound 17 (IC50 value) for 24, 48 or 72 h. […] Cell viability was determined using the Invitrogen Countess 3 Automated Cell Counter (Thermo Fisher Scientific, Waltham, MA, USA). […]

SW620 cells = test: MTT cell viability assay in SW620 cells; settings: Homo sapiens, SW-620, 72 h, read-out: IC50 SW620
Method: (§1) The MTT assay was used to assess the effect of the compounds on cell viability. For this purpose, A375 (1500 cells per well), BJ (10 000 cells per well), Caco-2 (4000 cells per well), HCT116 (3000 cells per well), Mia Paca-2 (2000 cells per well), SW480 (6000 cells per well), and SW620 (8000 cells per well) cells were seeded in 96-well plates and incubated for 24 h. Subsequently, the culture medium was switched with a new medium containing DMSO (control) or the compound at a specified concentration. Following a 72 h incubation period, the supernatant was aspirated, and 100 μL of a mixture (1 : 1) of filtered MTT solution (1 mg per mL PBS) and FBS-free medium was added. The plates were then incubated for 1 h at 37 °C. After this time, the supernatant was aspirated, and the formazan crystals were dissolved in 100 μL of DMSO in each well. Relative cell viability was calculated by measuring absorbance at 570 nm using a Benchmark Plus Microplate Reader (Bio-Rad Laboratories, Hercules, CA, USA). Results are presented as the mean ± standard deviation (SD) of IC50 values, determined by nonlinear regression analysis of dose–response curves (log(inhibitor) vs. response with variable slope (four parameters)) using GraphPad Prism 9 software (GraphPad Software, San Diego, CA, USA).

[1] = system: intracellular ROS levels in SW480 cells; test: Intracellular ROS quantification assay (H2DCFDA, flow cytometry); settings: SW480, 6.3 μM
Method: Intracellular ROS levels can be quantified using lipophilic and non-fluorescent probes, such as 2′,7′-dichlorodihydrofluorescein diacetate (H2DCFDA).[60] To assess the effect of compound 17 on intracellular ROS levels, SW480 cells were treated with compound 17, followed by incubation with the H2DCFDA probe after 24, 48, and 72 h of treatment. After, the cells were subjected to flow cytometry to quantify the fluorescence intensity of 2′,7′-dichlorofluorescein (DCF), as shown in Fig. 9. […] Both effects of compound 17 contributed to the inhibition of SW480 cell growth.
SW480 cells were seeded at a density of 1.68 × 10^5 cells per well in 6-well plates and incubated at 37 °C for 24 h. The cells were then treated with compound 17 (IC50 value) for 24, 48, or 72 h. The adherent cells were trypsinized, washed with DPBS, collected by centrifugation, and resuspended in 1 mL of HBSS containing 50 μM H2DCFDA probe and 2 mM L-glutamine. After 45 min of incubation at 37 °C in a cell culture incubator, the cell suspensions were washed with 2 mL DPBS and collected by centrifugation. The cells were then stained with 350 μL of DPBS containing 20 μg per mL PI solution (1 mg mL^−1). Inside the cells, the H2DCFDA probe is deacetylated and undergoes oxidation in the presence of ROS, transforming into a DCF fluorescent compound. The fluorescence emitted by DCF from 1 × 10^4 PI-negative cells was measured at 520 nm using a Gallios flow cytometer (Beckman Coulter, Brea, CA, USA).

BJ cells = test: MTT cell viability assay in non-tumoral BJ fibroblasts
Method: as §1

HCT116 cells = test: MTT cell viability assay in HCT116 cells
Method: The MTT assay was used to assess the effect of the compounds on cell viability. […] Subsequently, the culture medium was switched with a new medium containing DMSO (control) or the compound at a specified concentration. […] The plates were then incubated for 1 h at 37 °C. After this time, the supernatant was aspirated, and the formazan crystals were dissolved in 100 μL of DMSO in each well. Relative cell viability was calculated by measuring absorbance at 570 nm using a Benchmark Plus Microplate Reader (Bio-Rad Laboratories, Hercules, CA, USA).

CC(=O)Oc1c(C(C)C)cc2c(c1OC(C)=O)[C@@]1(NC(=O)OCC(C)C)CCCC(C)(C)[C@@H]1CC2 [Compound 17, (4bR,8aS)-8,8-Dimethyl-4b-{[(2-methylpropoxy)carbonyl]amino}-2-(propan-2-yl)-4b,5,6,7,8,8a,9,10-octahydrophenanthrene-3,4-diyl diacetate]
cell doubling time (SW480 cells): 69 h | IC50 (SW620 cells): 10 ± 1 µM | intracellular ROS levels relative to untreated cells ([1]; 24 h (control 100%)): 70% | intracellular ROS levels relative to untreated cells ([1]; 48 h (control 100%)): 157% | intracellular ROS levels relative to untreated cells ([1]; 72 h (control 100%)): 290% | times less potent in BJ cells than in cancer cell lines (selectivity) (BJ cells; BJ vs cancer cell lines): 3–8 times | IC50 (BJ cells; Homo sapiens, BJ, MTT assay, 72 h incubation): > 50 µM | fold more active than cisplatin (HCT116 cells; HCT116 cells, ratio of IC50 values): 1.2 fold | IC50 (HCT116 cells; Homo sapiens, HCT-116, 72 h, read-out: IC50 HCT116): 17 ± 2 µM
